Measurements published in patent publication US20210230131A1, “POLYAMINO BIARYL COMPOUNDS AND THEIR USE” (INSERM (INSTITUT NATIONAL DE LA SANTÉ ET DE LA RECHERCHE …, priority 2018, published 2021).

Legend:
Format in all cases: in vivo
Tau = Tau phosphorylation by Western-blotting in hippocampus and cortex of ThyTau22 mice; conditions: one month treatment; for phosphorylation of Tau (overall): hippocampus and cortex
Experimental: (§1) Thy-Tau22 transgenic colonies (C57Bl/6J genetic background) were obtained by crossing heterozygous males C57Bl/6J with WT females. All animals were housed in a pathogen-free facility at 5 to 6 animals per cage (Techniplast Cages 1284L), with ad libitum access to food and water in a 12/12-hour light-dark cycle and maintained under a constant temperature of 22° C. For treatment, animals were randomly distributed and compound 30 or 31 was provided in the drinking water at a final concentration of 1 mg/kg, ie […] for drinking solutions taking into account an average weight of 25 g/mouse drinking 4 mL/day. […] Food consumption and bodyweight were also assessed. In WT animals, a pilot study of drug treatment was performed for one month to establish the innocuousness of compound 30 and 31 treatments. Thy-Tau22 females were treated for 1 months, starting at 6 months of age.
Hyperphosphorylation and phosphorylation levels of Tau. Tau expression, phosphorylation and hyperphosphorylation in the hippocampus and in the cortex were investigated by Western-blotting (FIGS. 5 and 6). The mice were euthanized by beheading and their brain was dissected and was put for few seconds in an isopropanol solution for post-mortem conservation. The samples were sonicated with a Tris-Sucrose Buffer during 30s and were prepared for Western-blot analysis by adding 1 volume of NuPage NuPAGER©LDS 2× sample buffer supplemented with 20% NuPAGER© sample reducing agents (Invitrogen). Samples were heated 10 min at 70° C. 8 μg of proteins per well were loaded onto precast 12% Criterion XT Bis-Tris polyacrylamide 26 wells gels (Bio-Rad) and electrophoresis was achieved by applying a tension of 200V during 60 min using a Criterion electrophoresis Cell with the NuPAGER©MOPS SDS running buffer (1×). Proteins were transferred to a nitrocellulose membrane of […] pore size (G&E Healthcare) using the Criterion blotting system by applying a tension of 100 V for 40 min. Molecular weights calibration was achieved using molecular weight markers (Novex and Magic Marks, Life Technologies). Protein transfer and quality were determined by a reversible Ponceau Red coloration (0.2% Xylidine Ponceau Red and 3% Trichloroacetic acid). Membranes were then blocked in 25 mM Tris-HCl pH 8.0, 150 mM NaCl, 0.1% Tween-20 (v/v) (TBS-T) and 5% (w/v) of skimmed milk (TBS-M) or 5% (w/v) of bovine serum albumin (TBS-BSA) depending on the antibody during 1 hour. […] Quantifications of protein expression levels were performed with ImageQuantTL Software. The results obtained with the quantification of the treated samples were divided by the results obtained with the quantification of the housekeeping gene (GAPDH) in order to check if the amount of proteins was homogeneous in each well. […]

ThyTau22 mice = assay: Y-Maze short-term memory test in Thy-Tau22 mice; conditions: ThyTau22 mice treated one month, 1 mg/kg in drinking water; compared with compound 30
Experimental: as §1, with “In WT animals, a pilot study of drug treatment was performed for one month to establish the innocuousness of compound 30 and 31 treatments. Thy-Tau22 females were treated for 1 months, starting at 6 months of age.” left out
Before any behavioral test, exploratory behavior and locomotion were evaluated in treated and untreated animals in an Openfield (OF) 25 cm×25 cm arena. […] Anxiety, which could interfere with the memory test, was evaluated using the elevated plus maze (EPM). […] Locomotion, distance, speed and velocity were measured, as well as the number of entries into each arm, time spent in open versus closed arms, percentage of open arm entries and time spent in the open arms during a 5 minutes test.
Y-Maze: Short-term memory was tested on a Y-maze. […] Parameters—total distance travelled, velocity, alternation between the arms, entries into the new, starting or other arm—were measured over 5 minutes. […]

wild-type mice = assay: Y-Maze short-term memory test in wild-type mice; conditions: treated wild-type mice, 1 mg/kg in drinking water
Experimental: as §1
Y-Maze: Short-term memory was tested on a Y-maze. The Y-maze consists of three enclosed arms surrounded by spatial clues. One arm was closed off during the learning phase. Each mouse was positioned in the Starting arm. Mice were allowed to explore the maze for 5 min. During 2 min of retention time, the closed arm was opened and the mouse was re-placed in the starting arm. […] Parameters—total distance travelled, velocity, alternation between the arms, entries into the new, starting or other arm—were measured over 5 minutes. […]

CN(C)Cc1ccccc1-c1ccc(NCCCN2CCCCC2)c(OCCN2CCCCC2)c1 [Compound 30, 4-(2-[(Dimethylamino)methyl]phenyl)-2-[2-(piperidin-1-yl)ethoxy]-N-[3-(piperidin-1-yl)propyl]aniline]
phosphorylation of Tau (overall) (Tau): showed less effect on Tau phosphorylation

CN(C)Cc1ccccc1-c1ccc(NCCCN2CCCCC2)c(OCCC2CCCCC2)c1 [Compound 31, 3-(2-cyclohexylethoxy)-2′-((dimethylamino)methyl)-N-(3-(piperidin-1-yl)propyl)-[1,1′-biphenyl]-4-amine]
short memory preservation at the Y-Maze task (ThyTau22 mice): higher short memory preservation
Y-Maze behavioral task (wild-type mice): succeed in the Y-Maze behavioral task
Tau phosphorylation sites in the cortex (Tau; Western-blot): decreased significantly the p422, AT100, p396 and p262 phosphorylation sites
Tau phosphorylation sites in the hippocampus (Tau; Western-blot): p422 and p262 phosphorylation sites were also significantly reduced
phosphorylation of Tau (overall) (Tau): decreased the phosphorylation of Tau in the hippocampus and in the cortex
